Assay results reported in US8048825B2, “Haloalkylsulfonanilide derivatives or salt thereof, herbicide comprising the derivatives as active ingredient, and use of the herbicide” (Nihon Nohyaku Co., Ltd., priority 2006, dated 2011).

Legend:
Assay type in all cases: in vivo
Lindernia procumbens [1] = experiment: Herbicidal efficacy on paddy field weeds of pre-emergence stage (Pre), Test Example 1; conditions: 1000 g/ha as active ingredient, examined after 21 days
Experimental: (§1) 75 cm^2 plastic pots were filled with the soil (clay loam). Seeds of Scirpus juncoides, a paddy weed, were planted, and they were covered with 75 cm^3 of soil mixed with seeds of Lindernia procumbens and then filled with water depth of 5 cm. Next day, predetermined effective dosage (1000 g/ha as an active ingredient) of formulations comprising a compound of the present invention as an active ingredient which were prepared following Formulation Examples 1 to 4 was diluted with water and applied dropwise to the surface of the water. Then, they were brought up in a greenhouse and the herbicidal effect was examined after 21 days from the treatment by comparing with the result of an untreated group according to the following criteria. In the table, “-” means that the test was not performed.
(§2) Criteria for herbicidal efficacy (growth inhibiting degree) and phytotoxicity. • 5 . . . 100% herbicidal effect, phytotoxicity. • 4 . . . 90%-99% herbicidal effect, phytotoxicity. • 3 . . . 70%-89% herbicidal effect, phytotoxicity. • 2 . . . 40%-69% herbicidal effect, phytotoxicity. • 1 . . . 1%-39% herbicidal effect, phytotoxicity. • 0 . . . 0% herbicidal effect, phytotoxicity.

Scirpus juncoides [2] = experiment: as above; conditions: 1000 g/ha as active ingredient, examined after 21 days
Experimental: as §1, §2

Lindernia procumbens [3] = experiment: Herbicidal effect on paddy field weeds of post-emergence stage (Post), Test Example 2; conditions: one-leaf stage, 1000 g/ha as active ingredient, examined after 21 days
Description: as §2
(§3) 75 cm^2 plastic pots were filled with the soil (clay loam). Seeds of Scirpus juncoides and Echinochloa crus-galli, paddy weeds, were planted, and they were covered with 75 cm^3 of soil mixed with seeds of Lindernia procumbens and then filled with water depth of 5 cm and they were brought up in a greenhouse. When the test plants were at one-leaf stage, predetermined effective dosage (1000 g/ha as an active ingredient) of formulations comprising a compound of the present invention as an active ingredient was applied to the pot water. Then, they were brought up in a greenhouse and the herbicidal efficacy was examined after 21 days from the treatment by comparing with the result of an untreated group according to the criteria of Test Example 1. In the table, “-” means that the test was not performed.

Scirpus juncoides [4] = experiment: as above; conditions: one-leaf stage, 1000 g/ha as active ingredient, examined after 21 days
Description: as §2, §3

## CCC1(CC(C)C)CCN(Cc2ccccc2N(C(=O)OCC(C)(C)C)S(=O)(=O)C(F)(F)F)C(=O)O1 (racemic) [Compound 1-423]
Lindernia procumbens [1]
  Lindernia procumbens pre (herbicidal effect): 5 (100% herbicidal effect, phytotoxicity)
Scirpus juncoides [2]
  Scirpus juncoides pre (herbicidal effect): 4 (90%-99% herbicidal effect, phytotoxicity)
Lindernia procumbens [3]
  Lindernia procumbens post (herbicidal effect): 5 (100% herbicidal effect, phytotoxicity)
Scirpus juncoides [4]
  Scirpus juncoides post (herbicidal effect): 4 (90%-99% herbicidal effect, phytotoxicity)

## CC1(c2ccccc2F)CCN(Cc2ccccc2NS(=O)(=O)C(F)(F)F)C(=O)O1 (racemic) [Compound 1-428]
Lindernia procumbens [1]
  Lindernia procumbens pre (herbicidal effect): 5 (100% herbicidal effect, phytotoxicity)
Scirpus juncoides [2]
  Scirpus juncoides pre (herbicidal effect): 5 (100% herbicidal effect, phytotoxicity)
Lindernia procumbens [3]
  Lindernia procumbens post (herbicidal effect): 5 (100% herbicidal effect, phytotoxicity)
Scirpus juncoides [4]
  Scirpus juncoides post (herbicidal effect): 4 (90%-99% herbicidal effect, phytotoxicity)

## COC(=O)N(c1ccccc1CN1CCC(C)(c2ccccc2F)OC1=O)S(=O)(=O)C(F)(F)F (racemic) [Compound 1-429]
Lindernia procumbens [1]
  Lindernia procumbens pre (herbicidal effect): 5 (100% herbicidal effect, phytotoxicity)
Scirpus juncoides [2]
  Scirpus juncoides pre (herbicidal effect): 4 (90%-99% herbicidal effect, phytotoxicity)
Lindernia procumbens [3]
  Lindernia procumbens post (herbicidal effect): 5 (100% herbicidal effect, phytotoxicity)
Scirpus juncoides [4]
  Scirpus juncoides post (herbicidal effect): 4 (90%-99% herbicidal effect, phytotoxicity)

## CC1(c2c(F)cccc2F)CCN(Cc2ccccc2NS(=O)(=O)C(F)(F)F)C(=O)O1 (racemic) [Compound 1-439]
Lindernia procumbens [1]
  Lindernia procumbens pre (herbicidal effect): 5 (100% herbicidal effect, phytotoxicity)
Scirpus juncoides [2]
  Scirpus juncoides pre (herbicidal effect): 5 (100% herbicidal effect, phytotoxicity)
Lindernia procumbens [3]
  Lindernia procumbens post (herbicidal effect): 5 (100% herbicidal effect, phytotoxicity)
Scirpus juncoides [4]
  Scirpus juncoides post (herbicidal effect): 4 (90%-99% herbicidal effect, phytotoxicity)

## CCC1(C(C)C)CCN(Cc2ccccc2N(C(=O)OCC(C)(C)C)S(=O)(=O)C(F)(F)F)C(=O)O1 (racemic) [Compound 1-456]
Lindernia procumbens [1]
  Lindernia procumbens pre (herbicidal effect): 5 (100% herbicidal effect, phytotoxicity)
Scirpus juncoides [2]
  Scirpus juncoides pre (herbicidal effect): 5 (100% herbicidal effect, phytotoxicity)
Lindernia procumbens [3]
  Lindernia procumbens post (herbicidal effect): 5 (100% herbicidal effect, phytotoxicity)
Scirpus juncoides [4]
  Scirpus juncoides post (herbicidal effect): 4 (90%-99% herbicidal effect, phytotoxicity)

## CN(c1ccccc1CN1CCC(C)(C)OC1=O)S(=O)(=O)C(F)(F)F [Compound 1-54]
Scirpus juncoides [2]
  Scirpus juncoides pre (herbicidal effect): 4 (90%-99% herbicidal effect, phytotoxicity)
Scirpus juncoides [4]
  Scirpus juncoides post (herbicidal effect): 4 (90%-99% herbicidal effect, phytotoxicity)

## CN(c1ccccc1CN1CCC2(CCCC2)OC1=O)S(=O)(=O)C(F)(F)F [Compound 1-145]
Scirpus juncoides [2]
  Scirpus juncoides pre (herbicidal effect): 4 (90%-99% herbicidal effect, phytotoxicity)
Scirpus juncoides [4]
  Scirpus juncoides post (herbicidal effect): 4 (90%-99% herbicidal effect, phytotoxicity)

## CC(C)COC(=O)N(c1ccccc1CN1CCC(C2CC2)(C2CC2)OC1=O)S(=O)(=O)C(F)(F)F [Compound 1-154]
Lindernia procumbens [1]
  Lindernia procumbens pre (herbicidal effect): 4 (90%-99% herbicidal effect, phytotoxicity)

## CC(C)COC(=O)N(c1ccccc1CN1CCC(C)(c2ccccc2)OC1=O)S(=O)(=O)C(F)(F)F (centres unmarked) [Compound 1-165]
Lindernia procumbens [1]
  Lindernia procumbens pre (herbicidal effect): 4 (90%-99% herbicidal effect, phytotoxicity)
Scirpus juncoides [2]
  Scirpus juncoides pre (herbicidal effect): 4 (90%-99% herbicidal effect, phytotoxicity)
Scirpus juncoides [4]
  Scirpus juncoides post (herbicidal effect): 4 (90%-99% herbicidal effect, phytotoxicity)

## CN(c1ccccc1CN1CCC(C)(c2ccccc2)OC1=O)S(=O)(=O)C(F)(F)F (centres unmarked) [Compound 1-167]
Scirpus juncoides [2]
  Scirpus juncoides pre (herbicidal effect): 4 (90%-99% herbicidal effect, phytotoxicity)

## CN(c1ccccc1CN1CCC(c2ccccc2)(c2ccccc2)OC1=O)S(=O)(=O)C(F)(F)F [Compound 1-224]
Lindernia procumbens [1]
  Lindernia procumbens pre (herbicidal effect): 4 (90%-99% herbicidal effect, phytotoxicity)

## CC(C)COC(=O)N(c1ccccc1CN1CCC(c2ccccc2)OC1=O)S(=O)(=O)C(F)(F)F (centres unmarked) [Compound 1-244]
Lindernia procumbens [1]
  Lindernia procumbens pre (herbicidal effect): 5 (100% herbicidal effect, phytotoxicity)
Lindernia procumbens [3]
  Lindernia procumbens post (herbicidal effect): 5 (100% herbicidal effect, phytotoxicity)

## CN(c1ccccc1CN1CCC(c2ccccc2)OC1=O)S(=O)(=O)C(F)(F)F (centres unmarked) [Compound 1-246]
Lindernia procumbens [1]
  Lindernia procumbens pre (herbicidal effect): 5 (100% herbicidal effect, phytotoxicity)

## CC(C)COC(=O)N(c1ccccc1CN1CCC(c2ccccc2F)OC1=O)S(=O)(=O)C(F)(F)F (centres unmarked) [Compound 1-255]
Lindernia procumbens [1]
  Lindernia procumbens pre (herbicidal effect): 5 (100% herbicidal effect, phytotoxicity)
Lindernia procumbens [3]
  Lindernia procumbens post (herbicidal effect): 5 (100% herbicidal effect, phytotoxicity)

## CN(c1ccccc1CN1CCC(c2ccccc2F)OC1=O)S(=O)(=O)C(F)(F)F (centres unmarked) [Compound 1-257]
Lindernia procumbens [1]
  Lindernia procumbens pre (herbicidal effect): 5 (100% herbicidal effect, phytotoxicity)
Scirpus juncoides [2]
  Scirpus juncoides pre (herbicidal effect): 4 (90%-99% herbicidal effect, phytotoxicity)
Lindernia procumbens [3]
  Lindernia procumbens post (herbicidal effect): 5 (100% herbicidal effect, phytotoxicity)

## CCOCN(c1ccccc1CN1CC(C)(C)C(c2ccccc2)OC1=O)S(=O)(=O)C(F)(F)F (centres unmarked) [Compound 1-270]
Lindernia procumbens [1]
  Lindernia procumbens pre (herbicidal effect): 5 (100% herbicidal effect, phytotoxicity)
Lindernia procumbens [3]
  Lindernia procumbens post (herbicidal effect): 5 (100% herbicidal effect, phytotoxicity)
Scirpus juncoides [4]
  Scirpus juncoides post (herbicidal effect): 4 (90%-99% herbicidal effect, phytotoxicity)

## CN(c1ccccc1CN1CCC(c2c(Cl)cccc2Cl)OC1=O)S(=O)(=O)C(F)(F)F (centres unmarked) [Compound 1-279]
Lindernia procumbens [1]
  Lindernia procumbens pre (herbicidal effect): 5 (100% herbicidal effect, phytotoxicity)
Lindernia procumbens [3]
  Lindernia procumbens post (herbicidal effect): 5 (100% herbicidal effect, phytotoxicity)
Scirpus juncoides [4]
  Scirpus juncoides post (herbicidal effect): 4 (90%-99% herbicidal effect, phytotoxicity)

## CCOCN(c1ccccc1CN1CCC(c2c(Cl)cccc2Cl)OC1=O)S(=O)(=O)C(F)(F)F (centres unmarked) [Compound 1-281]
Lindernia procumbens [1]
  Lindernia procumbens pre (herbicidal effect): 5 (100% herbicidal effect, phytotoxicity)
Lindernia procumbens [3]
  Lindernia procumbens post (herbicidal effect): 5 (100% herbicidal effect, phytotoxicity)
Scirpus juncoides [4]
  Scirpus juncoides post (herbicidal effect): 4 (90%-99% herbicidal effect, phytotoxicity)

## Cc1ccccc1C1CCN(Cc2ccccc2N(C)S(=O)(=O)C(F)(F)F)C(=O)O1 (centres unmarked) [Compound 1-290]
Lindernia procumbens [1]
  Lindernia procumbens pre (herbicidal effect): 5 (100% herbicidal effect, phytotoxicity)
Lindernia procumbens [3]
  Lindernia procumbens post (herbicidal effect): 5 (100% herbicidal effect, phytotoxicity)
Scirpus juncoides [4]
  Scirpus juncoides post (herbicidal effect): 4 (90%-99% herbicidal effect, phytotoxicity)

## CN(c1ccccc1CN1CCC(c2ccccc2C(F)(F)F)OC1=O)S(=O)(=O)C(F)(F)F (centres unmarked) [Compound 1-301]
Lindernia procumbens [1]
  Lindernia procumbens pre (herbicidal effect): 5 (100% herbicidal effect, phytotoxicity)
Lindernia procumbens [3]
  Lindernia procumbens post (herbicidal effect): 5 (100% herbicidal effect, phytotoxicity)

## CN(c1ccccc1CN1CCC(c2ccccc2Cl)OC1=O)S(=O)(=O)C(F)(F)F (centres unmarked) [Compound 1-312]
Lindernia procumbens [1]
  Lindernia procumbens pre (herbicidal effect): 5 (100% herbicidal effect, phytotoxicity)
Lindernia procumbens [3]
  Lindernia procumbens post (herbicidal effect): 5 (100% herbicidal effect, phytotoxicity)

## CCOCN(c1ccccc1CN1CCC(c2ccccc2Cl)OC1=O)S(=O)(=O)C(F)(F)F (centres unmarked) [Compound 1-314]
Lindernia procumbens [1]
  Lindernia procumbens pre (herbicidal effect): 5 (100% herbicidal effect, phytotoxicity)
Scirpus juncoides [2]
  Scirpus juncoides pre (herbicidal effect): 4 (90%-99% herbicidal effect, phytotoxicity)
Lindernia procumbens [3]
  Lindernia procumbens post (herbicidal effect): 5 (100% herbicidal effect, phytotoxicity)

## CCC1(c2ccccc2)CCN(Cc2ccccc2N(C)S(=O)(=O)C(F)(F)F)C(=O)O1 (centres unmarked) [Compound 1-323]
Lindernia procumbens [1]
  Lindernia procumbens pre (herbicidal effect): 5 (100% herbicidal effect, phytotoxicity)
Lindernia procumbens [3]
  Lindernia procumbens post (herbicidal effect): 5 (100% herbicidal effect, phytotoxicity)

## O=C1OC(c2c(F)cccc2F)CCN1Cc1ccccc1NS(=O)(=O)C(F)(F)F (centres unmarked) [Compound 1-349]
Lindernia procumbens [1]
  Lindernia procumbens pre (herbicidal effect): 5 (100% herbicidal effect, phytotoxicity)
Scirpus juncoides [2]
  Scirpus juncoides pre (herbicidal effect): 5 (100% herbicidal effect, phytotoxicity)
Lindernia procumbens [3]
  Lindernia procumbens post (herbicidal effect): 5 (100% herbicidal effect, phytotoxicity)

## CCOCN(c1ccccc1CN1CCC(c2c(C)cccc2C)OC1=O)S(=O)(=O)C(F)(F)F (centres unmarked) [Compound 1-369]
Lindernia procumbens [1]
  Lindernia procumbens pre (herbicidal effect): 5 (100% herbicidal effect, phytotoxicity)
Lindernia procumbens [3]
  Lindernia procumbens post (herbicidal effect): 5 (100% herbicidal effect, phytotoxicity)
Scirpus juncoides [4]
  Scirpus juncoides post (herbicidal effect): 4 (90%-99% herbicidal effect, phytotoxicity)

## O=C1OCCCN1Cc1ccccc1NS(=O)(=O)C(F)(F)F [Compound No. 1-1, 3-[2-(trifluoromethanesulfonylamino)benzyl]-[1,3]-oxazinan-2-one]
Lindernia procumbens [1]
  Lindernia procumbens pre (herbicidal effect): 4 (90%-99% herbicidal effect, phytotoxicity)
Scirpus juncoides [2]
  Scirpus juncoides pre (herbicidal effect): 4 (90%-99% herbicidal effect, phytotoxicity)
Scirpus juncoides [4]
  Scirpus juncoides post (herbicidal effect): 4 (90%-99% herbicidal effect, phytotoxicity)

## CC1CCN(Cc2ccccc2NS(=O)(=O)C(F)(F)F)C(=O)OC1 (centres unmarked) [Compound No. 2-23, 6-methyl-3-[2-(trifluoromethanesulfonylamino)benzyl]-[1,3]-oxazepan-2-one]
Lindernia procumbens [1]
  Lindernia procumbens pre (herbicidal effect): 4 (90%-99% herbicidal effect, phytotoxicity)
Scirpus juncoides [2]
  Scirpus juncoides pre (herbicidal effect): 4 (90%-99% herbicidal effect, phytotoxicity)
Scirpus juncoides [4]
  Scirpus juncoides post (herbicidal effect): 4 (90%-99% herbicidal effect, phytotoxicity)
